Data reported in PMC9814544 (Communications Chemistry, 2020).
≈ marks a conversion by molar mass, not a printed value. Where two headings read alike, the source gives them in different places.

Columns and labels:
[1] = High throughput solubility; format: physicochemical; details: for solubility at 24 h: aqueous buffer, kinetic from dmso stock, n = 1
Method: The aqueous solubility of the test compound is determined by comparing the amount dissolved in buffer to the amount in an acetonitrile/water (1/1) solution. Starting from a 10 mM DMSO stock solution aliquots are diluted with acetonitrile/water (1/1) or buffer resp. After 24h of shaking, the solutions are filtrated and analyzed by LC-UV. The amount dissolved in buffer is compared to the amount in the acetonitrile solution. Solubility will usually be measured from 0.001 to 0.125 mg/ml at a DMSO concentration of 2.5%. The solubility at the different pH values for BI-0115 were measured with n = 1.

[2] = Metabolic stability in human liver microsomes; format: in vitro ADME; details: in vitro clearance as % hepatic blood flow, n = 1
Method: (§1) The metabolic degradation of the test compound is assayed at 37 °C with microsomes. The final incubation volume of 100 µl per time point contains TRIS buffer pH 7.6 at RT (0.1 M), magnesium chloride (5 mM), microsomal protein (1 mg/ml or 0.5 mg/ml depending on species) and the test compound at a final concentration of 1 µM.
(§2) Following a short preincubation period at 37 °C, the reactions were initiated by addition of beta-nicotinamide adenine dinucleotide phosphate, reduced form (NADPH, 1 mM) and terminated by transfering an aliquot into solvent after different time points. The quenched incubations are pelleted by centrifugation (10000 g, 5 min). An aliquot of the supernatant is assayed by LC-MS/MS for the amount of parent compound. The slope of the semi logarithmic plot of the concentration-time profile determines the half-life. The clearance is calculated by upscaling considering the amount of protein in the incubation, microsomal recovery and liver weight and normalized to the hepatic blood flow of the respective species. The number of experiments for BI-0115 is n = 1.

[3] = Metabolic stability in mouse liver microsomes; format: in vitro ADME; details: in vitro clearance as % hepatic blood flow, n = 1
Method: as §1, §2

[4] = PAMPA passive permeability; format: in vitro ADME
Description: The PAMPA assay provides data on the passive permeability of test compounds through immobilized artificial phospholipid membranes. The method used was extensively described previously. The number of experiments for BI-0115 is n = 1.

hERG channel = biological target: T1, hERG channel (Homo sapiens, UniProt Q12809); assay: hERG patch-clamp in HEK293 cells; format: cell-based
T1 construct: expressed in transfected cells; host or cells: HEK293
T1 sequence (Q12809 whole entry): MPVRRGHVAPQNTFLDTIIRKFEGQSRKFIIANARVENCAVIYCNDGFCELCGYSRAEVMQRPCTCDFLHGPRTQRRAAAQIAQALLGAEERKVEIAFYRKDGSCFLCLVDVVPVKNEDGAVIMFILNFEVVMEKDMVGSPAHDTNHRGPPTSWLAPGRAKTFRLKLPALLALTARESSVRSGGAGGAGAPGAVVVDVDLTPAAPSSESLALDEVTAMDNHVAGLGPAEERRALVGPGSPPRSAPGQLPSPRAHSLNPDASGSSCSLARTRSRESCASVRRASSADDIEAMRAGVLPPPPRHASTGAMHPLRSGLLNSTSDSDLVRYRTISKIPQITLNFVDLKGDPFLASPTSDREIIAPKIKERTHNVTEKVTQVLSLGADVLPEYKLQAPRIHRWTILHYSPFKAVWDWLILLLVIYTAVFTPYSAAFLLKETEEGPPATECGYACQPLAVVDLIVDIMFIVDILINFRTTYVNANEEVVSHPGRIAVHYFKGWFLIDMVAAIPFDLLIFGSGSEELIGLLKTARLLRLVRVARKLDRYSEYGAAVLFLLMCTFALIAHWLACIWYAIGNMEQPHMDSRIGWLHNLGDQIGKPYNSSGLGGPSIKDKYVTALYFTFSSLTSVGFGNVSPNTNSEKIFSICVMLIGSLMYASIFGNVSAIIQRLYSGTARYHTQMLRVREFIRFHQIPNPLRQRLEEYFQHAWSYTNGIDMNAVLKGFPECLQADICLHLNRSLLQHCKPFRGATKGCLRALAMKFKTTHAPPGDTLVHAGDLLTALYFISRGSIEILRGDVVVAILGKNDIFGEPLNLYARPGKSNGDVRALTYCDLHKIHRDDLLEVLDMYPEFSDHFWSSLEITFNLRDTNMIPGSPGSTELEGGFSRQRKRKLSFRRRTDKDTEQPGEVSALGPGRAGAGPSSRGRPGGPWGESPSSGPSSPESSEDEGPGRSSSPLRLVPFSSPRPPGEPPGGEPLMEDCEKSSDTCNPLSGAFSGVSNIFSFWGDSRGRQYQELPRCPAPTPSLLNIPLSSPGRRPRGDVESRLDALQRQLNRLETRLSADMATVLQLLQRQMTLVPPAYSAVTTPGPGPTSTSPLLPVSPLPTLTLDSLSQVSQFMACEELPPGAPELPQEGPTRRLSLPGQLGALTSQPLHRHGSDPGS
Method: hERG-mediated membrane currents are recorded in HEK (human embryonic kidney) 293 cells stably transfected with hERG cDNA, using the whole-cell configuration of the patch-clamp technique as previously described. The number of experiments for BI-0115 is n = 1.

With CCCN1C(=O)c2ccc(Cl)cc2Nc2ncccc21 [BI-0115] the solubility at 24 h ([1]; pH 4, aqueous buffer, pH4, read-out: Solubility pH4) was 1 µg/mL (≈ 3.48 µM), the solubility at 24 h ([1]; pH 7, aqueous buffer, pH7, read-out: Solubility pH7) was 1 µg/mL (≈ 3.48 µM) and the compound solubility ([1]; in words) was “low”. The “micr. Stab hLM” value [2] was 77 %QH, the “micr. Stab mLM” value [3] was 95 %QH and the Papp ([4]; PAMPA, n = 1) was 1.5 ×10⁻⁶ cm/s. The “Permeability, PAMPA assay” value ([4]; in words) was “good”, the “inhibition of the hERG channel” value (hERG channel; in words) was “no inhibition” and the IC50 (hERG channel; whole-cell patch-clamp, n = 1) was greater than 10 µM.
